The target of one data set is PvG6PD (Plasmodium vivax, UniProt A5K3M1). In words: PvG6PD enzyme inhibition assay (NADPH formation, absorbance 340 nm / fluorescence). In kind it is biochemical. As to conditions: for IC50 on PvG6PD: ellagic acid and derivatives. As to the method: The G6PD activity of PfGluPho variants was measured spectrophotometrically as described for the wt enzyme. Kinetic characterization of PvG6PD was performed using the same assay system at an Evolution 300 spectrophotometer (Thermo Scientific, Dreieich, Germany). In brief, the initial reduction of NADP^+ to NADPH by PvG6PD was monitored by measuring the absorbance at 340 nm. The 500 µL reaction mixture contained 200 µM NADP^+ and varying concentrations of PvG6PD in an assay buffer of 100 mM Tris–HCl, pH 8.0, 10 mM MgCl2, and 0.5 mM EDTA at 25 °C. The reaction was started by adding 800 µM G6P. The KM for NADP^+ was determined by titrating NADP^+ from 2 to 400 µM at 800 µM G6P; the KM for G6P was measured accordingly by titrating G6P from 2 to 1200 µM at 200 µM NADP^+. KM values were calculated using GraphPad Prism. Since the KM for G6P was considerably higher than the value measured for PfGluPho [14], a concentration of 800 µM G6P was defined as substrate saturation for PvG6PD.
Sequence of PvG6PD (A5K3M1 entry or part of it): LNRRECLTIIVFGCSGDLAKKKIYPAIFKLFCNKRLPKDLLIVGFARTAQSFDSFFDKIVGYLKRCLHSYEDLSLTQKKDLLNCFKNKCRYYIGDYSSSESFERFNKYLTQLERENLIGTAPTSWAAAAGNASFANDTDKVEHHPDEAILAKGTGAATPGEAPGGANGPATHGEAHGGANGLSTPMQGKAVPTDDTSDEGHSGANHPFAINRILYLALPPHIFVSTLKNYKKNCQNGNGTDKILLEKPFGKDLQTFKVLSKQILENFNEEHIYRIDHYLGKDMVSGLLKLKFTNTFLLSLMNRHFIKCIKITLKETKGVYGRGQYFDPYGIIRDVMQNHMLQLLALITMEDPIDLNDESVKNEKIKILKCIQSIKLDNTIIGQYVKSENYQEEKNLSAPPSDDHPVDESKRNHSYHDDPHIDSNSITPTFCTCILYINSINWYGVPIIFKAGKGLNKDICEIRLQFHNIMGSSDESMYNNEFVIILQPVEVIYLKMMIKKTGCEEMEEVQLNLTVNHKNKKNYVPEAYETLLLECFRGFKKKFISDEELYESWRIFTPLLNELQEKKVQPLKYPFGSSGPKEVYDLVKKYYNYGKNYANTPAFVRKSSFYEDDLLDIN
(§1) To identify potential inhibitors of PvG6PD, compounds with already known effects on PfGluPho (ellagic acid and derivatives, ML304) were tested. Additionally, several compound libraries of the Helmholtz Center for Infection Research, Brunswick, were screened against PfGluPho using the high-throughput-compatible assay systems described in Preuss et al.. […] Based on structure-activity relationship studies, a set of new potential G6PD inhibitors (Fig. 8) was then synthesized and assessed. First, the IC50 values of the compounds were determined, followed by mechanistic characterization of the mode of action. To test for selectivity of the compounds, the IC50 values of the compounds on PvG6PD, PfGluPho, and hG6PD were determined in parallel.
(§2) All measurements were performed in 96-well plates, half area (Greiner Bio-One, Frickenhausen, Germany) using a Tecan Infinite M200 plate reader (Maennedorf, Switzerland). The compounds were dissolved in 100% DMSO and afterwards diluted in assay buffer to the required concentrations. Different compound concentrations were added to a mixture of enzyme and NADP^+ in assay buffer. Concentrations of substrates differed depending on the enzyme; an overview is given in the Additional file 4. The reaction was started by adding G6P, and the increase of NADPH was monitored by measuring the absorbance at 340 nm. To increase the sensitivity of the assay, some measurements were reproduced, detecting the fluorescence of NADPH at ex340/em460. […] A negative control containing no compound was defined as 0% inhibition; a positive control lacking the substrate G6P was defined as 100% inhibition. For evaluations using GraphPad Prism and Microsoft Excel, only a linear increase in absorbance/fluorescence was considered. For the mechanistic characterization of the compounds, either NADP^+ or G6P were titrated at different compound concentrations around the IC50, while keeping the second substrate in saturation. The initial slope was plotted as Michaelis–Menten curves and Lineweaver–Burk plots using GraphPad Prism; KM values and Vmax were calculated with GraphPad Prism software.

Data set [1] addresses T1, hG6PD (Homo sapiens, UniProt P11413).
T1 construct: made in house
Nature of the data set: hG6PD enzyme inhibition assay. In kind it is biochemical. As to conditions: for IC50 on hG6PD relative to plasmodial enzymes (selectivity): compared with PfGluPho and PvG6PD. As to the method:
as §1, §2

Data set [2] can be described thus: Stability of compounds in enzyme assay buffer. As to conditions: 100 mM Tris–HCl pH 8.0 assay buffer, DMSO stock. In kind it is physicochemical.
Data set [3] deals with T2, PfGluPho (Plasmodium falciparum, UniProt Q8IKU0).
T2 construct: made in house
T2 sequence (Q8IKU0 1-910): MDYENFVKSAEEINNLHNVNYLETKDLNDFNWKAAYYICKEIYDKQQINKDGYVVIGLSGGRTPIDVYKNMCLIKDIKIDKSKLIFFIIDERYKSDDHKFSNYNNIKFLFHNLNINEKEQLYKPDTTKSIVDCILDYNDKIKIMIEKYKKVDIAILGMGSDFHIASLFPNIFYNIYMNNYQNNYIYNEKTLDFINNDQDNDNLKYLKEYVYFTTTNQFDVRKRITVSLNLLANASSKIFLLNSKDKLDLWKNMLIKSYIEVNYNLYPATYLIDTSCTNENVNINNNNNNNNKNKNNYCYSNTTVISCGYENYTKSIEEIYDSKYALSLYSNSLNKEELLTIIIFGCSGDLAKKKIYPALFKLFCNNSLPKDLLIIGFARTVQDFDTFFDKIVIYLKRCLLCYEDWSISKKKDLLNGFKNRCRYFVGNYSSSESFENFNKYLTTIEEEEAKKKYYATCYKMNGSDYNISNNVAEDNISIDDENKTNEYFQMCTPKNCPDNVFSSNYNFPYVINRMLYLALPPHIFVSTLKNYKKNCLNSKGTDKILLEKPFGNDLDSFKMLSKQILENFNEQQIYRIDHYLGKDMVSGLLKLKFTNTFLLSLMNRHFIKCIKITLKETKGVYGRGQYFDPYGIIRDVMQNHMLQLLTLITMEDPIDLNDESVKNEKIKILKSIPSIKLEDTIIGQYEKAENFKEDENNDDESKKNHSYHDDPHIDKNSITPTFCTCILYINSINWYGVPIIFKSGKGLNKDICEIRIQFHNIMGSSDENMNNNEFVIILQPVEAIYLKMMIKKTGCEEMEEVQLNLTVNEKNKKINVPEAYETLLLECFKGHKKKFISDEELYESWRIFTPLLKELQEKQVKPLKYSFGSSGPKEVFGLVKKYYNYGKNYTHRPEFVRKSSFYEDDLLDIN
Nature of the data set: PfGluPho G6PD activity inhibition assay. In kind it is biochemical. On the procedure: as §1, §2

Data set [4] addresses T2, PfGluPho. As to conditions: ML276; read-out: IC50 against PfGluPho; cited from earlier work.
In data set [5] the target is T1, hG6PD. As to conditions: ML276; read-out: IC50 against hG6PD; cited from earlier work.
Data set [6] concerns the molecule itself. In words: SEC; size exclusion chromatography of purified PfGluPho mutants under reducing conditions. Background: SEC sorts molecules by how far they enter the pores of the column.
Where [7] appears, read: mean ± SD, only one enzyme batch, read-out: IC50 on hG6PD.
The mark [8] stands for this setting: mean ± SD, at least two independent determinations, different enzyme batches, read-out: IC50 on PfGluPho.

Residue numbers refer to the chain shown, from its start. Names and notes keep the numbering of the source. Like-named read-outs stand apart in the source and are kept apart here. Where only a bound is given, the exact number is not on record here.

T1 sequence (P11413 whole entry): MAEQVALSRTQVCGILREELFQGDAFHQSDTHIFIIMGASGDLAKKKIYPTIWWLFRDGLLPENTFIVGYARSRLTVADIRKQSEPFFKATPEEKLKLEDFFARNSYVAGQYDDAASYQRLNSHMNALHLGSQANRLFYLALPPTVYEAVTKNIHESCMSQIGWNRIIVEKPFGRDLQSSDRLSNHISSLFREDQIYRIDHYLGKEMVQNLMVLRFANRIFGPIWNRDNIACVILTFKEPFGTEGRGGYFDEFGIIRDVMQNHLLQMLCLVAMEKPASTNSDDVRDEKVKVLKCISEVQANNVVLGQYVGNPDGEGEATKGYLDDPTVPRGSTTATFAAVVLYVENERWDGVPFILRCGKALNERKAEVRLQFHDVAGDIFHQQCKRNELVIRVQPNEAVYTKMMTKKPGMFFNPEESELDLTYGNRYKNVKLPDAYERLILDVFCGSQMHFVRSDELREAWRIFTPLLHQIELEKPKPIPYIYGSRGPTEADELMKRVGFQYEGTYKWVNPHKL

With `O=c1oc2c(O)c(O)c(O)c3c(=O)oc4c(O)c(O)cc1c4c23` [FEA, flavellagic acid], at PvG6PD, the IC50 amounted to 0.0372 ± 0.0058 µM and the “IC50 on PvG6PD” value is “lower nanomolar range”.

On to `N#CC(Br)c1ncccn1` (stereo not drawn) [2 (vz1731)], for which the IC50 on hG6PD [1] (setting [7]) turned out to be 91.7 ± 35 µM; at PfGluPho [3] (setting [8]), 11.7 ± 9.9 µM; at PvG6PD, 2.1 ± 0.1 µM. Further, the “Stability in the assay buffer / of dissolved compound” value in data set [2] is on record as “only active when the powder was freshly dissolved”.

On to `O=[N+]([O-])C(C(Cl)=C(Cl)Cl)=C1N(c2ccccc2)CCN1c1ccccc1` [20 (vz0005)], for which the IC50 on hG6PD [1] (setting [7]), on PfGluPho [3] (setting [8]) and on PvG6PD was over 100 µM in each case.

For `C=C[S+]([O-])c1sc(Cl)c(N2CCN(c3c(Cl)sc([S+]([O-])C=C)c3[N+](=O)[O-])CC2)c1[N+](=O)[O-]` (stereo not drawn) [21 (vz0527)], the IC50 amounted to 8.3 ± 2.7 µM against hG6PD [1], 1.7 ± 0.3 µM against PfGluPho [3] and 0.2 ± 0.1 µM against PvG6PD. Besides, on hG6PD [1], the “IC50 on hG6PD relative to plasmodial enzymes (selectivity)” value is given as “one to two orders of magnitude higher”. Also, the “Stability in the assay buffer / of dissolved compound” value in data set [2] is recorded as “only active when the powder was freshly dissolved”.

For `O=c1oc2c(O)c(O)c(O)c3c(=O)oc4c(O)c(O)c(O)c1c4c23` [CEA, coruleoellagic acid], at PvG6PD, half-maximal inhibition (IC50) required 0.0444 ± 0.0019 µM and the “IC50 on PvG6PD” value is “lower nanomolar range”.

On to `ClC=C(n1nnc2ccccc21)n1nnc2ccccc21` [8 (vz0882)], for which the “Stability in the assay buffer / of dissolved compound” value in data set [2] is “less stable”. Further, the IC50 at PfGluPho [3] (setting [8]) stood at 18.1 ± 10.4 µM; at PvG6PD, 12.8 ± 7.8 µM.

On to `O=C(O)C(Cl)(C=C(Cl)Cl)[N+](=O)[O-]` (stereo not drawn) [10 (vz1204)], for which the IC50 at hG6PD [1] (setting [7]) was over 100 µM; against PvG6PD, 23.5 ± 3.7 µM.

With `O=C(C(=C1N(Cc2ccc(Cl)nc2)CCN1Cc1ccc(Cl)nc1)[N+](=O)[O-])C(Cl)(Cl)[N+](=O)[O-]` [18 (vz0909)], the IC50 against hG6PD [1] is 26 ± 1.8 µM; against PfGluPho [3], 23.6 ± 14.3 µM; against PvG6PD, 9.1 ± 2.8 µM. The “Stability in the assay buffer / of dissolved compound” value in data set [2] is “less stable”.

As for `N#CC(Br)c1ncccc1Cl` (stereo not drawn) [4 (vz1732)], the “IC50 on hG6PD relative to plasmodial enzymes (selectivity)” value at hG6PD [1] was “one to two orders of magnitude higher”. In addition, the IC50 at hG6PD [1] (setting [7]) turned out to be 34.7 ± 21 µM; at PfGluPho [3] (setting [8]), 0.9 ± 0.2 µM; against PvG6PD, 0.2 µM. Besides, the “Stability in the assay buffer / of dissolved compound” value in data set [2] is listed as “only active when the powder was freshly dissolved”. Moreover, on PfGluPho [3] (both substrate G6P and coenzyme NADP+), the “Type of inhibition of PfGluPho against G6P and NADP+” value is reported as “non-competitively”.

As to `CCN1CCC[C@@H]1CNC(=O)c1ccc2c(c1)NC(=O)/C(=C/c1ccccc1F)S2` [ML276, (R, Z)-N-((1-ethylpyrrolidin-2-yl)methyl)-2-(2-fluorobenzylidene)-3-oxo-3,4-dihydro-2H-benzo[b][1,4]thiazine-6-carboxamide], the IC50 was 0.89 µM at PfGluPho [4] and over 80 µM on hG6PD [5].

For `O=CC(Cl)=C(I)I` [13 (vz0288)], the IC50 is over 100 µM at hG6PD [1] (setting [7]); 29.6 ± 23.2 µM on PfGluPho [3] (setting [8]); 23.3 ± 7.8 µM on PvG6PD (mean ± SD, at least two independent determinations, different enzyme batches, read-out: IC50 on PvG6PD).

For `O=C(/C(=C1\N(Cc2ccc(Cl)nc2)CCN1Cc1cnc(Cl)s1)[N+](=O)[O-])C(Cl)(Cl)[N+](=O)[O-]` [19 (vz0914)], the half-maximal inhibitory concentration (IC50) against hG6PD [1] turned out to be 29.6 ± 5 µM; at PfGluPho [3], 8.4 ± 8.4 µM; at PvG6PD, 5.6 ± 0.6 µM. In addition, in data set [2], the “Stability in the assay buffer / of dissolved compound” value is recorded as “less stable”.

B1: PfGluPho S315Y (enzyme)
chain: T2 sequence (Q8IKU0 1-910) with S315Y
notes: source: E. coli, purified (size exclusion chromatography under reducing conditions); produced as described previously [14]
Take B1: the “stoichiometry N” value in data set [6] was found to be 4.

B2: PfGluPho F507L (enzyme)
chain: T2 sequence (Q8IKU0 1-910) with F507L
notes: as for B1
As to B2, the “stoichiometry N” value in data set [6] amounted to 4.

B3: PfGluPho S900E (phosphomimetic mutant) (enzyme)
chain: T2 sequence (Q8IKU0 1-910) with S900E
notes: as for B1
For the molecule B3, the “stoichiometry N” value in data set [6] was 4.

B4: PfGluPho L395F (enzyme)
chain: T2 sequence (Q8IKU0 1-910) with L395F
notes: as for B1
As for B4, the “stoichiometry N” value in data set [6] stood at 4.

B5: PfGluPho S899E (phosphomimetic mutant) (enzyme)
chain: T2 sequence (Q8IKU0 1-910) with S899E
notes: as for B1
B5: the “stoichiometry N” value in data set [6] stood at 4.

The term IC50 denotes the point on the concentration scale where inhibition reaches its midpoint. One may read the stoichiometry N as a count of units in the complex or per binding partner.

Values taken from article PMC6346587, “Glucose 6-phosphate dehydrogenase 6-phosphogluconolactonase: characterization of the Plasmodium vivax enzyme and inhibitor studies” (Malaria Journal, 2019).
